For data set [1], the system named is P. falciparum 3D7A stage V gametocytes, female gamete formation. Further details: method as in ref [73] (a number printed in a supplementary file, which may have a reference list of its own: not looked up in the article's list). The conditions noted are these: 5µM; ref [73]; cited from earlier work.
Data set [2] has as its system Entamoeba histolytica Rahman. The arrangement: method as in ref [87] (a number printed in a supplementary file, which may have a reference list of its own: not looked up in the article's list). Particulars: read-out: Entamoeba histolytica Rahman EC50 (30 means >30); ref [87]; cited from earlier work.
Data set [3] in a line: Kinetic Solubility at pH 7.4 (LC/CLND). Type of data set: physicochemical. Particulars: pH 7.4, aqueous buffer, kinetic from dmso stock; read-out: Kinetic Solubility >20µM at pH 7.4. The method, then:
Columns GD-GJ: Wuxi Inc. data for MMV (data presented first in this paper) PK/DMPK Parameters: Fasted animals (Male CD-1 mouse, 7-9 weeks age, 30±10 g, n=3) obtained from an approved vendor (SLAC Laboratory Animal Co. Ltd., Shanghai, China or Sino-British SIPPR/BK Laboratory Animal Co. Ltd Shanghai, China) were administered with a single oral dose (140 μmol/kg) using DMSO: 1% HPMC (5:95) as a vehicle. Blood sampling was performed via the submandibular or saphenous vein (t=0.083, 0.25, 1, 2, 4, 6 and 9 h) and transferred into microcentrifuge tubes containing Sodium Heparin (1,000 IU/ml) as anti-coagulant placed on wet ice until processed for plasma by centrifugation at approximately 4°C, 3000×g for 15 min. Plasma samples were stored in polypropylene tubes, quick frozen over dry ice and kept at -70±10°C until LC/MS/MS analysis. LC/MS/MS methods for the quantitative determination compounds plasma levels were developed with an internal standard. […] (Phoenix WinNonlin, version 6.2.1, Pharsight, Mountain View, CA) and expressed as Cmax & AUC0-last. […] AUC0-last is the area under the curve expressed as >12 h*μM (Yes or No). Plasma protein binding assay (PPB) (CD-1 mouse and human) expressed as <95% bound, >95% bound, or >99% bound. Kinetic Solubility at pH 7.4 was determined by liquid chromatography/chemiluminescence nitrogen detection (LC/CLND) and was scored as greater than 20µM (Yes or No). hERG inhibition was measured at 11µM by the QPatch- HT system and is expressed as “Yes” if greater than 45% inhibited at 11µM and “No” if less than or equal to 45% inhibited at 11µM. As part of the Drug-Drug Interaction studies (DDI issues), 5 human and 1 mouse CYP isoforms (1A2, 2C9, 2C19, 2D6, 3A4-M, 3A4-T) were tested for inhibition assay at 10 µM. […] Otherwise DDI issues were scored as “No”. Positive and negative controls were run for each assay (Table 1).

The subject of data set [4] is Leishmania infantum MHOM/MA/BE/67. Particulars: ref [84]; read-out: Leishmania infantum EC50 intracellular amastigotes in primary macrophages; cited from earlier work.
For data set [5], the system named is P. falciparum W2 apicoplast. Particulars: 5µM compound; ref [54]; cited from earlier work.
Another data set relates to B. bovis (Texas strain). Description: B. bovis fluorescence-based growth assay. Particulars: Babesia bovis, in Bos taurus. In kind it is cell-based.
In data set [6] the test system is P. falciparum NF54 GFP-Pfs16 gametocytes stage IV-V. Particulars: ref [64], cited from earlier work.
The target in another data set is PfPMT (Plasmodium falciparum, UniProt Q8IDQ9). Description: PfPMT gene replacement yeast growth.
Data set [7] relates to P. falciparum 3D7 gametocytes stage IV-V. Kind of data set: Gametocyte pLDH assay UMIL. Type of data set: cell-based. The conditions noted are these: Plasmodium falciparum, 3D7, 72 h. How it is done: Columns BO-BR: Taramelli group (Columns BO-BP data presented first in this paper, Columns BQ-BR are new data except as noted below). Gametocytocidal activity at UMIL. The Malaria Box compounds were used for primary screening against P. falciparum 3D7 gametocytes and subsequently for IC50 determination against Pf gametocytes obtained from the 3D7 and the 3D7elo1-pfs16-CBG99 transgenic strain [74], as previously described. The primary screening was performed on stage IV-V gametocytes from the 3D7 strain at 3.7 µM, in 96 well plates, using 100 nM epoxomicin and 1 µM DHA as positive controls and 0.5% DMSO as negative untreated control. […] The dose-response experiments were performed in 96 well plates using the 3D7 strain (pLDH, 72+72h, column BR in heat map) and the 3D7elo1-pfs16-CBG99 (luciferase assay, 72h, column BQ in heat map). Data analysis was performed as described.

In data set [8] the test system is Saccharomyces cerevisiae strain JHY222. Kind of data set: S. cerevisiae JHY222 growth in three media. Type of data set: cell-based. The conditions noted are these: 100µM. How it is done:
Columns EB-ED: St. Onge group (data presented first in this paper). Growth inhibition of S. cerevisiae: The effects of Malaria Box compounds on the growth of yeast (Saccharomyces cerevisiae) were quantified as described previously. We employed the prototrophic yeast strain JHY222, a derivative of BY4743 in which auxotrophic markers have been repaired. Growth was measured in three different growth media: rich medium using dextrose as a carbon source, minimal medium using dextrose as a carbon source, or minimal medium using ethanol and glycerol as carbon sources. Compounds affecting growth in a media-specific manner may represent inhibitors of key metabolic pathways. For example, the antifolate drug methotrexate was previously shown to inhibit yeast growth far more potently in minimal medium compared to rich medium.

Setting [9] is: read-out: % Inhibition in PfPMT gene replacement yeast, no added choline.
The mark [10] stands for this setting: read-out: % Inhibition in PfPMT gene replacement yeast, with added choline.
Where [11] appears, read: 3.7 µM, read-out: gametocytes 3D7, stage IV-V, pLDH, 72+72h, %inhibition.
Setting [12] is: 3.7µM, read-out: gametocytes 3D7, stage IV-V, pLDH, 72h, %inhibition.

SMILES strings stand for the structures. Like-named read-outs stand apart in the source and are kept apart here. Bounds are passed on as bounds.

Chain of PfPMT (Q8IDQ9 whole entry): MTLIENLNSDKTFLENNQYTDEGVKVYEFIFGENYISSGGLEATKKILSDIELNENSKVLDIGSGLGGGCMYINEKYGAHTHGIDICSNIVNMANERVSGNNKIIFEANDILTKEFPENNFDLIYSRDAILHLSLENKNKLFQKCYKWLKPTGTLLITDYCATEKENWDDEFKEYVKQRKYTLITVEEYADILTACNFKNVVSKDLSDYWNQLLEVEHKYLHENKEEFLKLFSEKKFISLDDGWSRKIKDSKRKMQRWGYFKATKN

Usually EC50 stands for the concentration at which the effect is half-maximal. In general, solubility (kinetic) refers to solubility judged after dilution from a stock solution rather than from solid. What is called inhibition is the relative decrease from the control value, in per cent. On to `CCN(CC)c1cc(C)c2cc(NC(=O)c3cccc(OC)c3)ccc2n1` [MMV000498], for which the “3D7A female gamete formation acridine orange % inhibition” value in [1] is reported as 3%. In addition, the EC50 was greater than 30 µM in data set [2], 16.2 µM in [4] and 10 µM with B. bovis (Texas strain). For the same compound, in data set [3], the solubility (kinetic) was less than 20 µM. Moreover, in data set [5], the “P. falciparum (W2) asexual growth: ratio w & wout 200µM IPP” value (shortened to “P. falciparum … ratio w & wout 200µM IPP”) is 1.10. The “gametocyte late stage (IV-V) GFP-MTR % inhibition” value in data set [6] (0.5µM) is -0.167%; in [6] (5µM) it was 87%. Moreover, the inhibition at 100 µM amounted to 16% at PfPMT (setting [9]) and 0% on PfPMT (setting [10]). In addition, the inhibition at 3.7 µM in data set [7] (setting [11]) amounted to 11%; in data set [7] (setting [12]), 5%. The “S. cerevisiae jhy222 in YNBD medium growth compared with DMSO control” value in [8] is on record as -0.05. Also, the “S. cerevisiae jhy222 in YNBEG medium growth compared with DMSO control” value in data set [8] was found to be 0.14. Also, the “S. cerevisiae jhy222 in YPD medium growth compared with DMSO control” value in data set [8] was -0.0562.
On to `CCN1CCN(c2cc(C)c3cc(NC(=O)c4ccc(OC)c(OC)c4)ccc3n2)CC1` [MMV019074], for which the “3D7A female gamete formation acridine orange % inhibition” value in data set [1] was -18%. Besides, the results for the EC50 (in [2]; in [4]; with B. bovis (Texas strain)) were greater than 30 µM, 6.35 µM and 6.69 µM, respectively. Also, the kinetic solubility in data set [3] was less than 20 µM. Moreover, the “gametocyte late stage (IV-V) GFP-MTR % inhibition” value in [6] (0.5µM) is given as -6.56%; in [6] (5µM), 4%. For the same compound, the inhibition at 100 µM at PfPMT (setting [9]) and at PfPMT (setting [10]) was 0% throughout. The inhibition at 3.7 µM in data set [7] (setting [11]) was determined as 13%; in data set [7] (setting [12]), 10%. The “S. cerevisiae jhy222 in YNBD medium growth compared with DMSO control” value in data set [8] is given as 0.0025. Also, in [8], the “S. cerevisiae jhy222 in YNBEG medium growth compared with DMSO control” value is reported as -0.0049. Further, the “S. cerevisiae jhy222 in YPD medium growth compared with DMSO control” value in [8] is on record as -0.0537.
Consider `CCOC(=O)c1cnc2ccc(OC)cc2c1NCc1ccccc1` [MMV665813], for which the “3D7A female gamete formation acridine orange % inhibition” value in data set [1] was -11%. For the same compound, the figures for the EC50 (in data set [2]; in data set [4]; in the data set on B. bovis (Texas strain)) were greater than 30 µM, 10.1 µM and 0.72 µM, respectively. Further, the solubility (kinetic) in data set [3] is less than 20 µM. In addition, in data set [5], the “P. falciparum … ratio w & wout 200µM IPP” value is 0.72. The “gametocyte late stage (IV-V) GFP-MTR % inhibition” value is on record as 10% in [6] (0.5µM) and 2% in [6] (5µM). For the same compound, the inhibition at 100 µM on PfPMT (setting [9]) and at PfPMT (setting [10]) was 0% throughout. For the same compound, the inhibition at 3.7 µM in [7] (setting [11]) was determined as 12%; in data set [7] (setting [12]) it was 26%. For the same compound, in data set [8], the “S. cerevisiae jhy222 in YNBD medium growth compared with DMSO control” value was -0.13. Further, the “S. cerevisiae jhy222 in YNBEG medium growth compared with DMSO control” value in [8] is on record as -0.06. Also, the “S. cerevisiae jhy222 in YPD medium growth compared with DMSO control” value in data set [8] came to 0.0021.
In the case of `COc1cc2cc(C(=O)Nc3ccccc3)c(N)nc2cc1OC` [MMV006767], in [1], the “3D7A female gamete formation acridine orange % inhibition” value is -3%. For the same compound, the figures for the EC50 (in [2]; in the data set on B. bovis (Texas strain)) were greater than 30 µM and 0.86 µM, respectively. Moreover, the kinetic solubility in [3] was greater than 20 µM. Moreover, the results for the “gametocyte late stage (IV-V) GFP-MTR % inhibition” value in [6] (0.5µM) and in data set [6] (5µM) were 3% and -13%, respectively. For the same compound, the inhibition at 100 µM at PfPMT (setting [9]) and at PfPMT (setting [10]) was 0% throughout. Further, the inhibition at 3.7 µM in data set [7] (setting [11]) was 2.43%; in [7] (setting [12]) it was 10%. Further, the “S. cerevisiae jhy222 in YNBD medium growth compared with DMSO control” value in data set [8] is on record as -0.11. In addition, the “S. cerevisiae jhy222 in YNBEG medium growth compared with DMSO control” value in data set [8] is given as -0.49. Also, the “S. cerevisiae jhy222 in YPD medium growth compared with DMSO control” value in data set [8] is given as -0.0536.
Take `COc1ccc(C(=O)Nc2ccc3nc(N4CCCCC4)cc(C)c3c2)cc1OC` [MMV019758]: the EC50 in data set [2] was greater than 30 µM; in data set [4], 16.2 µM; in the data set on B. bovis (Texas strain), 14.3 µM. In addition, the solubility (kinetic) in data set [3] is less than 20 µM. Moreover, in [5], the “P. falciparum … ratio w & wout 200µM IPP” value is on record as 0.79. In addition, the “gametocyte late stage (IV-V) GFP-MTR % inhibition” value is listed as 3.3% in data set [6] (0.5µM) and 51% in data set [6] (5µM). The inhibition at 100 µM at PfPMT (setting [9]) and on PfPMT (setting [10]) was 0% each time. For the same compound, the inhibition at 3.7 µM in data set [7] (setting [11]) is 11%; in [7] (setting [12]) it was 12%. The “S. cerevisiae jhy222 in YNBD medium growth compared with DMSO control” value in data set [8] came to 0.0051. In addition, the “S. cerevisiae jhy222 in YNBEG medium growth compared with DMSO control” value in [8] was found to be 0.20. Also, the “S. cerevisiae jhy222 in YPD medium growth compared with DMSO control” value in data set [8] came to 0.0044.
